# Laboratory results reported in PubChem BioAssay (NCI).
#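 Results reflect a 48-hour exposure of cells in 96-well plates to compound at five concentrations. TGI marks complete inhibition of growth.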
# Legend:
# Experiment in all cases: NCI tumour cell line growth inhibition, 48 h
# 786-0 renal = system: 786-0 renal
# A498 renal = system: A498 renal
# A549 NSCLC = system: A549 NSCLC
# ACHN renal = system: ACHN renal
# CAKI-1 renal = system: CAKI-1 renal
# CCRF-CEM leukemia = system: CCRF-CEM leukemia
# DMS 114 small cell lung = system: DMS 114 small cell lung
# DMS 273 small cell lung = system: DMS 273 small cell lung
# EKVX NSCLC = system: EKVX NSCLC
# HCC-2998 colon = system: HCC-2998 colon
# HL-60(TB) leukemia = system: HL-60(TB) leukemia
# HOP-18 NSCLC = system: HOP-18 NSCLC
# HOP-62 NSCLC = system: HOP-62 NSCLC
# HOP-92 NSCLC = system: HOP-92 NSCLC
# HT29 colon = system: HT29 colon
# IGROV1 ovarian = system: IGROV1 ovarian
# K-562 leukemia = system: K-562 leukemia
# KM12 colon = system: KM12 colon
# KM20L2 colon = system: KM20L2 colon
# LOX IMVI melanoma = system: LOX IMVI melanoma
# LXFL 529 NSCLC = system: LXFL 529 NSCLC
# MALME-3M melanoma = system: MALME-3M melanoma
# MOLT-4 leukemia = system: MOLT-4 leukemia
# NCI-H226 lung = system: NCI-H226 lung
# NCI-H23 lung = system: NCI-H23 lung
# OVCAR-3 ovarian = system: OVCAR-3 ovarian
# OVCAR-4 ovarian = system: OVCAR-4 ovarian
# OVCAR-5 ovarian = system: OVCAR-5 ovarian
# OVCAR-8 ovarian = system: OVCAR-8 ovarian
# RPMI-8226 leukemia = system: RPMI-8226 leukemia
# RXF 393 renal = system: RXF 393 renal
# SF-268 CNS = system: SF-268 CNS
# SF-295 CNS = system: SF-295 CNS
# SF-539 CNS = system: SF-539 CNS
# SK-MEL-28 melanoma = system: SK-MEL-28 melanoma
# SK-MEL-5 melanoma = system: SK-MEL-5 melanoma
# SK-OV-3 ovarian = system: SK-OV-3 ovarian
# SN12C renal = system: SN12C renal
# SNB-19 CNS = system: SNB-19 CNS
# SNB-75 CNS = system: SNB-75 CNS
# SNB-78 CNS = system: SNB-78 CNS
# SR leukemia = system: SR leukemia
# SW-620 colon = system: SW-620 colon
# TK-10 renal = system: TK-10 renal
# U251 CNS = system: U251 CNS
# UACC-257 melanoma = system: UACC-257 melanoma
# UACC-62 melanoma = system: UACC-62 melanoma
# UO-31 renal = system: UO-31 renal
# XF 498 CNS = system: XF 498 CNS
structure (smiles),measurement,setting,value
Cc1c2ccncc2c(C)c2c1[nH]c1ccc(Oc3ccccc3)cc12,TGI,786-0 renal,3.24 µM
same,TGI,A498 renal,11.4 µM
same,TGI,A549 NSCLC,4.8 µM
same,TGI,ACHN renal,17.3 µM
same,TGI,CAKI-1 renal,> 100 µM
same,TGI,CCRF-CEM leukemia,9.41 µM
same,TGI,DMS 114 small cell lung,3.35 µM
same,TGI,DMS 273 small cell lung,3.07 µM
same,TGI,EKVX NSCLC,> 100 µM
same,TGI,HCC-2998 colon,3.18 µM
same,TGI,HL-60(TB) leukemia,5.88 µM
same,TGI,HOP-18 NSCLC,30.4 µM
same,TGI,HOP-62 NSCLC,4.42 µM
same,TGI,HOP-92 NSCLC,13.9 µM
same,TGI,HT29 colon,3.84 µM
same,TGI,IGROV1 ovarian,42.4 µM
same,TGI,K-562 leukemia,4.01 µM
same,TGI,KM12 colon,9.49 µM
same,TGI,KM20L2 colon,3.36 µM
same,TGI,LOX IMVI melanoma,4 µM
same,TGI,LXFL 529 NSCLC,4.28 µM
same,TGI,MALME-3M melanoma,3.58 µM
same,TGI,MOLT-4 leukemia,6.44 µM
same,TGI,NCI-H226 lung,37.6 µM
same,TGI,NCI-H23 lung,> 53.1 µM
same,TGI,OVCAR-3 ovarian,7.75 µM
same,TGI,OVCAR-4 ovarian,10.5 µM
same,TGI,OVCAR-5 ovarian,3.94 µM
same,TGI,OVCAR-8 ovarian,3.48 µM
same,TGI,RPMI-8226 leukemia,5.27 µM
same,TGI,RXF 393 renal,3.84 µM
same,TGI,SF-268 CNS,> 28.4 µM
same,TGI,SF-295 CNS,12.6 µM
same,TGI,SF-539 CNS,3.13 µM
same,TGI,SK-MEL-28 melanoma,9.67 µM
same,TGI,SK-MEL-5 melanoma,9.46 µM
same,TGI,SK-OV-3 ovarian,15.9 µM
same,TGI,SN12C renal,4.69 µM
same,TGI,SNB-19 CNS,46.1 µM
same,TGI,SNB-75 CNS,8.73 µM
same,TGI,SNB-78 CNS,6.68 µM
same,TGI,SR leukemia,12.3 µM
same,TGI,SW-620 colon,> 100 µM
same,TGI,TK-10 renal,22.9 µM
same,TGI,U251 CNS,3.37 µM
same,TGI,UACC-257 melanoma,4.33 µM
same,TGI,UACC-62 melanoma,3.16 µM
same,TGI,UO-31 renal,35.2 µM
same,TGI,XF 498 CNS,3.61 µM
